Measured values reported in US20230074252A1, “DOSAGES AND METHODS FOR TREATING PULMONARY ARTERIAL HYPERTENSION WITH RODATRISTAT” (Altavant Sciences GmbH, priority 2020, published 2023).
“Also recorded” adds a separate entry of the source.

How the values were obtained:
Type in all cases: in vitro ADME
CYP2C19 = CYP2C19 (Homo sapiens, UniProt P33261); assay: In vitro CYP substrate assessment (victim potential)
OATP1B1 = target: T1, OATP1B1 (Homo sapiens, UniProt Q9Y6L6); assay: Transporter inhibition, HEK293 cells, estradiol-17β-glucuronide probe; details: for Calculated Values, R-value, OATP1B1 / Potential for interaction? (transporter inhibitor), OATP1B1: predicted @ 600 mg BID; for IC50: read-out: In vitro IC50, OATP1B1
T1 construct: expressed in transfected cells; host or cells: HEK293
T1 sequence (Q9Y6L6 1-691): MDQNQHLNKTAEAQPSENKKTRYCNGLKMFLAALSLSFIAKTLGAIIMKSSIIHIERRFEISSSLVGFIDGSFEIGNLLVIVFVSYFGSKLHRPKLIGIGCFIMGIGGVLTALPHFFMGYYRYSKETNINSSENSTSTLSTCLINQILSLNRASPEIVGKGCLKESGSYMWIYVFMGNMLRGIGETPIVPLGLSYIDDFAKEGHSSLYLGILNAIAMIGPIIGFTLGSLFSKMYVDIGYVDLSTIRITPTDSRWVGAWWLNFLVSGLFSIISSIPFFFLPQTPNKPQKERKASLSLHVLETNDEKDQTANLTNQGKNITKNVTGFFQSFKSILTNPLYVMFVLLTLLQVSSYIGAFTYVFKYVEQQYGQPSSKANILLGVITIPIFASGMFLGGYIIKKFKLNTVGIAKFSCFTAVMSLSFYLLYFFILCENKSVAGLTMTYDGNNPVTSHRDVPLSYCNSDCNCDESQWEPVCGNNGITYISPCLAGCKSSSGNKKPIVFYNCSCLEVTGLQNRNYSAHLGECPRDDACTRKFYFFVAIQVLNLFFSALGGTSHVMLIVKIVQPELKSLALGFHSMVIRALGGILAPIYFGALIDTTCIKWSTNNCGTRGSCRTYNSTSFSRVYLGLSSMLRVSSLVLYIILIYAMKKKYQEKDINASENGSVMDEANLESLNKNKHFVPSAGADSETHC
Protocol: (§1) The competitive inhibition of specific transporters was investigated for RVT-1201 and KAR5417 in transporter-expressing in vitro systems (XT158039). Inhibition of P-gp was evaluated using a Caco-2 cell line with digoxin as probe substrate. Inhibition of OATP1B1 and OATP1B3 was evaluated using a HEK293 cell line expressing these transporters with estradiol-17β-glucuronide as probe substrate. In addition, inhibition of other transporters was also investigated (BCRP, OAT1, OAT3, OCT2, MATE1, MATE2-K). The IC50 estimates for P-gp (RVT-1201) and OATP1B1/3 (RVT-1201 and KAR5417) supported further evaluation of inhibition DDI potential using the PBPK model. For each IC50 estimate, substrate concentration and Km were used to estimate RVT-1201 and KAR5417 Ki with Equation 1 (Cheng and Prusoff, 1973).

OATP1B3 [1] = target: T2, OATP1B3 (Homo sapiens, UniProt Q9NPD5); assay: as above; details: for Calculated Values, R-value, OATP1B3 / Potential for interaction? (transporter inhibitor), OATP1B3: predicted @ 600 mg BID; for IC50: read-out: In vitro IC50, OATP1B3
T2 construct: expressed in transfected cells; host or cells: HEK293
T2 sequence (Q9NPD5 1-702): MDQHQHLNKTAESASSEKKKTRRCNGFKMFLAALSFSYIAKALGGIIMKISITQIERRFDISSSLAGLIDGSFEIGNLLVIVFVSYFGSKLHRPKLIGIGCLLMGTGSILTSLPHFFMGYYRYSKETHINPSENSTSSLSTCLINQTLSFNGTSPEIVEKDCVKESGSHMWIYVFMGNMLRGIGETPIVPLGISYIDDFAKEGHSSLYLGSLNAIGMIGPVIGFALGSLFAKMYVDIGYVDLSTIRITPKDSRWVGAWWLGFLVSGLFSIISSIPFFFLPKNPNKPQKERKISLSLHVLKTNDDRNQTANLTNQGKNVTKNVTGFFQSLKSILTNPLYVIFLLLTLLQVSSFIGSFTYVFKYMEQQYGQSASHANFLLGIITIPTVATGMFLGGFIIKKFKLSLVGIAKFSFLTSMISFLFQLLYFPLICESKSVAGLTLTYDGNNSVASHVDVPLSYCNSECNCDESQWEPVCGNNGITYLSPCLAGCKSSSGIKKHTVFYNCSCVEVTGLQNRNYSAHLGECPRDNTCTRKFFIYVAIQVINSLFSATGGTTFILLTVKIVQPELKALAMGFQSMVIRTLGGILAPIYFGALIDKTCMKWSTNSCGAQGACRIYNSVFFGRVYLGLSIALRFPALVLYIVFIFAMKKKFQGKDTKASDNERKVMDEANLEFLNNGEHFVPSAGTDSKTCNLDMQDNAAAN
Protocol: as §1

MRP2 [2] = target: T3, MRP2 (Homo sapiens, UniProt Q92887); assay: Transporter inhibition, in vitro; details: for Potential for interaction? (transporter inhibitor), MRP2: predicted @ 600 mg BID
BCRP = target: T4, BCRP (Homo sapiens, UniProt Q9UNQ0); assay: In vitro transporter substrate assessment
T4 sequence (Q9UNQ0 1-655): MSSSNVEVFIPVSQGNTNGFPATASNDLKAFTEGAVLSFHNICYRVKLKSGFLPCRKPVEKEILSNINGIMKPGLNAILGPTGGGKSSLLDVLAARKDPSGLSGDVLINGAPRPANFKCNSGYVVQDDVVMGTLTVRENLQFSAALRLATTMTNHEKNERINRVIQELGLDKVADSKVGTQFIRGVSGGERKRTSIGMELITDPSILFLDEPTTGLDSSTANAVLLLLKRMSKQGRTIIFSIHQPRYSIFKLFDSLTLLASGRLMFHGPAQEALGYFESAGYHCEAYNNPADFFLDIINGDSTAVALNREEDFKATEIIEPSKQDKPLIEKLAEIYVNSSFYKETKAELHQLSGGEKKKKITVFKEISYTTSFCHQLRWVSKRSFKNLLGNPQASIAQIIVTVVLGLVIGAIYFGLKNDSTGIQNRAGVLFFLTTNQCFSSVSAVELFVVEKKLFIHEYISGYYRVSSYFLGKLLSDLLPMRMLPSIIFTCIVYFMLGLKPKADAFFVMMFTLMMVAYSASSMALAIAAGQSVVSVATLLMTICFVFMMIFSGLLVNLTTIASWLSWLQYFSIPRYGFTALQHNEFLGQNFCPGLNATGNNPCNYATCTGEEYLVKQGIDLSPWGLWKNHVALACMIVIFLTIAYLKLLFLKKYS
Text: (§2) Consequently, the elimination of rodatristat into bile may be impacted by co-administration with agents that are BCRP inhibitors.

MRP2 [3] = target: T3, MRP2; assay: In vitro transporter substrate assessment
Text: as §2

OATP1B3 [4] = target: T2, OATP1B3; assay: In vitro transporter substrate assessment
Text: as §2

P-gp = target: T5, P-gp (Homo sapiens, UniProt P08183); assay: In vitro transporter substrate assessment
T5 construct: endogenous in cells; host or cells: Caco-2
Text: as §2

T5 sequence (P08183 whole entry): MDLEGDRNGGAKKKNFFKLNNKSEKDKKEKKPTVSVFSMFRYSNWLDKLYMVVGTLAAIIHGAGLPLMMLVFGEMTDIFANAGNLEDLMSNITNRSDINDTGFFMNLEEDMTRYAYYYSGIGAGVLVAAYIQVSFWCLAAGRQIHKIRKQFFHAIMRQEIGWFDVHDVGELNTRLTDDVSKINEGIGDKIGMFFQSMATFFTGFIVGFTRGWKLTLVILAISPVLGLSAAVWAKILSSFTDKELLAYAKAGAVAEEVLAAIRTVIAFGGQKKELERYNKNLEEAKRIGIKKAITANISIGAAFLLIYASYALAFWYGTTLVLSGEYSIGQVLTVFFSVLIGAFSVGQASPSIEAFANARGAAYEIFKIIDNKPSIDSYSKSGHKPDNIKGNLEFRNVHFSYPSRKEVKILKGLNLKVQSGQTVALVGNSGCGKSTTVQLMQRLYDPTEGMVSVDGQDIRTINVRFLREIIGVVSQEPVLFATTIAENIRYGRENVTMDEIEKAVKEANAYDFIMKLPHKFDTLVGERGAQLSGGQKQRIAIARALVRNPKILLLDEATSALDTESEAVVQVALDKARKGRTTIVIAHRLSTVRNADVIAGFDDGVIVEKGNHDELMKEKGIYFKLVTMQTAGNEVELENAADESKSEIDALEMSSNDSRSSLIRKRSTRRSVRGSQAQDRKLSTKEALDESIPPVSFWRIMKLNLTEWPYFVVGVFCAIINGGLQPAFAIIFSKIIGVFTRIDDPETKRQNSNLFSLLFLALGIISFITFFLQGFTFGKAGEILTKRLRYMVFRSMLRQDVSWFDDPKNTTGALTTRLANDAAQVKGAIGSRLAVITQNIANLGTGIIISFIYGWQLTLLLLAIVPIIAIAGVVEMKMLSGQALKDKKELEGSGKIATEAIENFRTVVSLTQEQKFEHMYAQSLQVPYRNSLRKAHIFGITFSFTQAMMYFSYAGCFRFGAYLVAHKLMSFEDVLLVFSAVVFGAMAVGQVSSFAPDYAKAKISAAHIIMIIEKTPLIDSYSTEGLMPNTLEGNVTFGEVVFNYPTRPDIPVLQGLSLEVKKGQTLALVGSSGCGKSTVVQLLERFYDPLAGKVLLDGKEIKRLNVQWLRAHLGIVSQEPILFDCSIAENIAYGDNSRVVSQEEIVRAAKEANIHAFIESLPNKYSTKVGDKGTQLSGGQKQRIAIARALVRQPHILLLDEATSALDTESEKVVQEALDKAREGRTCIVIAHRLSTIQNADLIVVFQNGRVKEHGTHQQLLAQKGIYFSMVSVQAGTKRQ
T3 sequence (Q92887 whole entry): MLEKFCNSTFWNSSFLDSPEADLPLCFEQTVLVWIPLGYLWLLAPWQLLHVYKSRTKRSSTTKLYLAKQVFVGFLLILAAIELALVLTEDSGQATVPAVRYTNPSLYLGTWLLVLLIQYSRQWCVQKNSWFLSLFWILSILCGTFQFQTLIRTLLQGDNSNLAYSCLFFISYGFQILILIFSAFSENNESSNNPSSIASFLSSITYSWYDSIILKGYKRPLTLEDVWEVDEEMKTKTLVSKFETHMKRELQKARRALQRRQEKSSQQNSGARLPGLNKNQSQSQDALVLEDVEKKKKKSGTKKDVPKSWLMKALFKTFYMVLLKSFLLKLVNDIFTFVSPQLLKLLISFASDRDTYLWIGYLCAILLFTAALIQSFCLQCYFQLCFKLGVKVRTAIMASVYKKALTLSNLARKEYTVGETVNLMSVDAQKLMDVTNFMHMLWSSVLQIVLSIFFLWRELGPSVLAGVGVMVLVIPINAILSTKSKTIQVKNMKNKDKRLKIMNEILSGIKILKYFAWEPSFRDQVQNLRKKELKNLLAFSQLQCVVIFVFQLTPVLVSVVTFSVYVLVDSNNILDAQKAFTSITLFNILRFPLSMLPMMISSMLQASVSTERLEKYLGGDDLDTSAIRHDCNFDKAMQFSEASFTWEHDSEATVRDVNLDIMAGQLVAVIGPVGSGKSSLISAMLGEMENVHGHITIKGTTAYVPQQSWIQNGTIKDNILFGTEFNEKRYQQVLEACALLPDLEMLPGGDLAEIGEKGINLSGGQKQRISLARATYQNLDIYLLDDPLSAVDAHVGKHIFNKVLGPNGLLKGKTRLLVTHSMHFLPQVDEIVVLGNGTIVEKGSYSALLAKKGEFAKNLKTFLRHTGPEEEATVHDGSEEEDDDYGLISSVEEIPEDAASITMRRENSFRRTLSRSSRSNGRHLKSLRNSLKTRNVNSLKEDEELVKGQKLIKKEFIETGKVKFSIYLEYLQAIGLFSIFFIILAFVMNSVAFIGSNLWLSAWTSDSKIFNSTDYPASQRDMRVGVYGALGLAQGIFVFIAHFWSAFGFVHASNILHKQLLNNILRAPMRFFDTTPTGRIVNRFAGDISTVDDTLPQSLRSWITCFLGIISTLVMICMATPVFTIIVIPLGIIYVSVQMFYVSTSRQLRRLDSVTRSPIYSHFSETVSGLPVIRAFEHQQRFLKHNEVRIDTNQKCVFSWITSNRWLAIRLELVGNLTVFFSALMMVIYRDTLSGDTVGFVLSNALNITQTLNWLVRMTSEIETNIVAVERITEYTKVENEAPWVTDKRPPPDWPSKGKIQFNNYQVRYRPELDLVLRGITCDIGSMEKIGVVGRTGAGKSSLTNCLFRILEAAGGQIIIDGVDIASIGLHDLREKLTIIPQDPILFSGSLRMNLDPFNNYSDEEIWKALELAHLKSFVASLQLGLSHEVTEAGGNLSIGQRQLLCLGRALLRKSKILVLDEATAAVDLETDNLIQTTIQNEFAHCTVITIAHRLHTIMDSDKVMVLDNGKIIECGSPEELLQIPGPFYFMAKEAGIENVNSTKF
CYP2C19, sequence (P33261 whole entry): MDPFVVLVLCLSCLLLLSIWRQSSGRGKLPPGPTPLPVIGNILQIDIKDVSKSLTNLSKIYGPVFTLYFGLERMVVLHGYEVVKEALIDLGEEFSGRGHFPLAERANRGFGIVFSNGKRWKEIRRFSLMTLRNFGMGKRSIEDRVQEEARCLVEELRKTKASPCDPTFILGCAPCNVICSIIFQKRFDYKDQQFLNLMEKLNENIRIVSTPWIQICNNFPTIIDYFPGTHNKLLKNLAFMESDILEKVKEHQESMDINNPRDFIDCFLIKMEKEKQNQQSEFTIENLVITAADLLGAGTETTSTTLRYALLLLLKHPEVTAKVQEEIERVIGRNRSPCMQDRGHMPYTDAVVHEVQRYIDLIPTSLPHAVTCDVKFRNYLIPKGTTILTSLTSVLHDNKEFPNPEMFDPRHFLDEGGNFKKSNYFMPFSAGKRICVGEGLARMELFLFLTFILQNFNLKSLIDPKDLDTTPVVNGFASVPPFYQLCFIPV

Row | In vitro substrate? CYP2C19 (CYP2C19) | Calculated Values, R-value, OATP1B1 (OATP1B1) | Potential for interaction? (transporter inhibitor), OATP1B1 (OATP1B1) | IC50 (OATP1B1) [µM] | Calculated Values, R-value, OATP1B3 (OATP1B3 [1]) | Potential for interaction? (transporter inhibitor), OATP1B3 (OATP1B3 [1]) | Calculated Values, R-value, OATP1B3 (OATP1B3 [1]; listed as rodatristat ethyl) | IC50 (OATP1B3 [1]) [µM] | Potential for interaction? (transporter inhibitor), MRP2 (MRP2 [2]) | In vitro substrate? OATP1B3 (OATP1B3 [4]) | inhibition at 30 µM (MRP2 [2]; nominal 30 μM) [%] | Accumulation by OATP1B3 uptake transporter (OATP1B3 [4]; 3 μM) [fold] | Structure (SMILES) | In vitro substrate? BCRP (BCRP) | In vitro substrate? MRP2 (MRP2 [3]) | In vitro substrate? P-gp (P-gp)
1 | No | <1.1 | No | 25.4 | <1.1 | No | < 1.1 | 12.3 | No | not a substrate and No | – | – | CCOC(=O)[C@@H]1CC2(CCN(c3cc(O[C@H](c4ccc(Cl)cc4-c4ccccc4)C(F)(F)F)nc(N)n3)CC2)CN1 [Rodatristat ethyl, (S)-ethyl 8-(2-amino-6-((R)-1-(5-chloro-[1,1′-biphenyl]-2-yl)-2,2,2-trifluoroethoxy)pyrimidin-4-yl)-2,8-diazaspiro[4.5]decane-3-carboxylate] | not a substrate; also recorded: not likely | not a substrate; also recorded: not likely | not a substrate; also recorded: not likely
2 | No | <1.1 | No | 5.74 | 1.26 | Yes | – | 1.93 | No^a | is an in vitro substrate and Yes | 25 | 9.28 | Nc1nc(O[C@H](c2ccc(Cl)cc2-c2ccccc2)C(F)(F)F)cc(N2CCC3(CC2)CN[C@H](C(=O)O)C3)n1 [Rodatristat, (S)-8-(2-amino-6-((R)-1-(5-chloro-[1,1′-biphenyl]-2-yl)-2,2,2-trifluoroeth-oxy)pyrimidin-4-yl)-2,8-diazaspiro[4.5]decane-3-carboxylic acid] | potential substrate | not an in vitro substrate; also recorded: Not likely | potential substrate
